Test results: patent US20080038228A1, “Method” (Danisco A/S, priority 2003, published 2008)
Entries after “also recorded” stand apart in the source; their conditions may differ.

Experiments:
[1] = test system: indomethacin-induced gastrointestinal damage; test: Rat model of indomethacin-induced gastrointestinal damage, damage area (Experiment 3); type: in vivo; settings: male Wistar rats
From the text: (§1) A previously described rat model was used to study indomethacin-induced gastrointestinal damage (see Meddings and Gibbons, Gastroenterology 1998; 114:83-92). Briefly, male Wistar rats were used and ten rats were included in each treatment group. Five different treatments were included: control group with no indomethacin treatment, indomethacin control group with no intervention treatment, indomethacin with 10^8 Bifidobacterium per rat, indomethacin with 10^10 Bifidobacterium per rat, and indomethacin with betaine (200 mg/rat). A single dose of indomethacin (10 mg/kg) was given p.o. preceded by a seven-day intervention with or without Bifidobacterium or betaine. In addition, a mixture of sucrose, lactulose, mannitol and sucralose was given p.o to measure gastrointestinal (GI) permeability. Urine samples were obtained at 16 hours after the challenge with indomethacin and prior to sacrificing the animals. Mucosa of the stomach and the intestine were examined by a pathologist and tissue samples of healthy-appearing mucosa for RNA isolation were collected from stomach, proximal and distal small intestine, caecum and proximal and distal colon. RNA was isolated and expression of cyclooxygenase-1 and -2 (COX-1 and COX-2, respectively) were determined by QPCR.

[2] = test system: indomethacin-induced gastrointestinal damage; test: Combined live Bifidobacterium and betaine in indomethacin-challenged rats, damage area (Experiment 4); type: in vivo, rat; settings: Experiment 4, indomethacin-challenged male Wistar rats; Bifidobacterium 10^10 and betaine 200 mg daily per animal; preliminary investigations
Procedure: Male Wistar rats as described previously in Experiment 3 above are split into the following treatment groups: a control, an indomethacin challenge group as a control, and treatment groups 3-5, which receive intervention treatment by live Bifidobacterium (10^10 daily dose per animal) and betaine (200 mg of daily dose per animal) either separately or in combination. Damage is determined from the sacrificed rats only.

[3] = test system: gastrointestinal (GI) permeability; test: Gastrointestinal permeability, urine concentrations of marker sugars in indomethacin-challenged rats (Experiment 3); type: in vivo, rat; settings: male Wistar rats, single dose 10 mg/kg p.o., urine at 16 hours
From the text: as §1

[4] = test system: cyclooxygenase 1 gene expression in Caco2 cells; test: Caco-2 cell-based exposure test, Cox-1 gene expression (Experiment 1: selected metabolites and co-cultured bacterium); set-up: species or system human; settings: 24 hour treatment, metabolites 5 mM, bacterium co-cultured in membrane insert
Procedure: The human colorectal carcinoma cell line Caco-2 was grown at 37° C. and 5% CO2 in serum-free Dulbeccos' MEM (Gibco) supplemented with 1 mM sodium pyruvate (Gibco) and 1× non-essential amino acids (Gibco) (DMEM). When grown without added bacteria, 20 Uml^−1 penicillin (Gibco), 20 μgml^−1 streptomycin (Gibco) and 0.5 μgml^−1 amphotericin (Gibco) were added to the medium. Bifidobacterium sp. 420 was grown anaerobically for 48 hours at 37° C. in a BIF medium consisting of 10 gl^−1 tryptic digest of casein peptone; 5 gl^−1 meat extract; 5 gl^−1 yeast extract; 10 gl^−1 glucose; 3 gl^−1 K2HPO4; 0.1% (volume/volume) Tween 80; 1% ascorbic acid and 0.05% cysteine-HCl; pH 6.8. 2 ml of logarithmic phase culture was centrifuged at 4000 rpm for 3 minutes. The cell pellet was suspended in 1.6 ml DMEM. […]
(§2) After 24 hour exposure, media and culture inserts were discarded, cells were lysed and RNA was extracted using Qiagen's (Germany) RNEasy Mini Kit DNA was digested using the same manufacturer's RNase free DNase. […] Cox-1/Cox-2 expression patterns were determined by real-time quantitative TaqMan PCR (Holland et al., 1991 Proc. Natl. Acad. Sci. USA August 15; 88(16): 7276-80; and Livak and Scmittgen, 2001 Methods December; 25(4):402-8) using the default settings of an ABIPrism 7000 Sequence Detection instrument (Applied Biosystems).

[5] = test system: cyclooxygenase 2 gene expression in Caco2 cells; test: Caco-2 cell-based exposure test, Cox-2 gene expression (Experiment 1: selected metabolites and co-cultured bacterium); set-up: species or system human; settings: 24 hour treatment, metabolites 5 mM, bacterium co-cultured in membrane insert
Procedure: The human colorectal carcinoma cell line Caco-2 was grown at 37° C. and 5% CO2 in serum-free Dulbeccos' MEM (Gibco) supplemented with 1 mM sodium pyruvate (Gibco) and 1× non-essential amino acids (Gibco) (DMEM). When grown without added bacteria, 20 Uml^−1 penicillin (Gibco), 20 μgml^−1 streptomycin (Gibco) and 0.5 μgml^−1 amphotericin (Gibco) were added to the medium. Bifidobacterium sp. 420 was grown anaerobically for 48 hours at 37° C. in a BIF medium consisting of 10 gl^−1 tryptic digest of casein peptone; 5 gl^−1 meat extract; 5 gl^−1 yeast extract; 10 gl^−1 glucose; 3 gl^−1 K2HPO4; 0.1% (volume/volume) Tween 80; 1% ascorbic acid and 0.05% cysteine-HCl; pH 6.8. 2 ml of logarithmic phase culture was centrifuged at 4000 rpm for 3 minutes. The cell pellet was suspended in 1.6 ml DMEM. The production of short chain organic acids by the bacterium was tested from fresh and conditioned bifidobacterium medium using gas chromatography.
(§3) To determine the effects of various treatments on the Cox-1/Cox-2 expression pattern, approximately 500 000 Caco-2 cells/well were seeded on 24-well cell culture plates. The cells were allowed to attach for 24 hours, after which the media were replaced by fresh media (total volume 1 ml/well) containing either no other added components than the ones described above (control treatments, with and without antibiotics) or antibiotic supplemented media with 5 mM sodium butyrate; 5 mM sodium propionate; 5 mM sodium acetate or 5 mM sodium lactate. In addition, wells were prepared that contained no antibiotics but a 0.2 μm anopore membrane tissue culture insert (Nunc, Denmark) into which 100 μl of the bacterial suspension described above was added.
After 24 hour exposure, media and culture inserts were discarded, cells were lysed and RNA was extracted using Qiagen's (Germany) RNEasy Mini Kit DNA was digested using the same manufacturer's RNase free DNase. Reverse transcription was performed using the High Capacity cDNA Archive Kit (Applied Biosystems, USA) according to the instructions provided by the manufacturer. Cox-1/Cox-2 expression patterns were determined by real-time quantitative TaqMan PCR (Holland et al., 1991 Proc. Natl. Acad. Sci. USA August 15; 88(16): 7276-80; and Livak and Scmittgen, 2001 Methods December; 25(4):402-8) using the default settings of an ABIPrism 7000 Sequence Detection instrument (Applied Biosystems).

[6] = test system: Cox-1/Cox-2 expression pattern in Caco-2 cells; test: Cox-1/Cox-2 ratio and expression pattern in Caco-2 cells; type: cell-based, human; settings: Experiment 1, Caco-2 cells, 24 hour exposure
Procedure: as §3, with “In addition, wells were prepared that contained no antibiotics but a 0.2 μm anopore membrane tissue culture insert (Nunc, Denmark) into which 100 μl of the bacterial suspension described above was added.” left out
as §2
Two bifidobacteria (Bifidobacterium sp. 420 and Bifidobacterium longum 913) were cultured as described in Experiment 1. […] Bacterial growth was stopped by chilling confluent cultures on ice, after which cell densities were determined by flow cytometry (FACS Calibur, Becton Dickinson). […]

Cox-2 expression = settings: according to prior art; cited from earlier work

Row | SMILES | Cox-1 gene expression level, fold change in relation to the control [4] | Cox-2 gene expression level, fold change in relation to the control [5] | Cox-1/Cox-2 ratio / expression pattern (FIG. 1) [6] | effect on Cox-2 expression (Cox-2 expression) | other results
1 | C[N+](C)(C)CC(=O)[O-] [Betaine, trimethylglycine] | – | – | – | – | pathological damage area ([1]; seven-day intervention, then indomethacin 10 mg/kg p.o.): tendency to decrease; also recorded: somewhat reduced; damage area in the gastrointestinal tract [2]: tends to decrease
2 | COc1ccc2c(c1)c(CC(=O)O)c(C)n2C(=O)c1ccc(Cl)cc1 [Indomethacin, indomethacin] | – | – | – | – | gross pathological changes (ulceration) ([1]; single dose 10 mg/kg p.o.): induced ulceration mainly to fundic stomach, but also to pyloric stomach; urine concentrations of marker sugars after the challenge [3]: significant increase
3 | CC(=O)[O-].[Na+] [acetate, sodium acetate] | 2.08 fold change | 1.17 fold change | – | – | –
4 | CCCC(=O)[O-].[Na+] [butyrate, sodium butyrate] | – | 0.15 fold change | increase | lowering effect | –
5 | CC(O)C(=O)[O-].[Na+] (centres unmarked) [lactate, sodium lactate] | 0.91 fold change | 0.74 fold change | – | – | –
6 | CCC(=O)[O-].[Na+] [propionate, sodium propionate] | – | 0.36 fold change | increase | lowering effect | –
